Test results taken from US9193722B2, “Tri-cyclic pyrazolopyridine kinase inhibitors” (Vertex Pharmaceuticals Incorporated, priority 2008, dated 2015).

Key:
Format in all cases: biochemical
PKC theta kinase = PKC theta kinase (Homo sapiens, UniProt Q04759); test: PKC theta kinase inhibition, coupled-enzyme (NADH absorbance) assay, Ki; conditions: 240 μM ATP, 18 nM PKC theta kinase, 30° C.
How it was run: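 Enzyme and compound equilibrated 10 min at 30 °C before reaction in HEPES pH 7.5 buffer with MgCl2, NaCl, EDTA and Brij. Activity tracked as NADH loss at 340 nm through a coupled system. Initial-rate data fitted by non-linear regression to give Ki.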

PKC delta kinase = PKC delta kinase (Homo sapiens, UniProt Q05655); test: PKC delta kinase inhibition, coupled-enzyme (NADH absorbance) assay, Ki; conditions: 150 μM ATP, 46 nM PKC delta kinase, 30° C.; read-out: Ki PKC delta
Chain of PKC delta kinase (Q05655 whole entry): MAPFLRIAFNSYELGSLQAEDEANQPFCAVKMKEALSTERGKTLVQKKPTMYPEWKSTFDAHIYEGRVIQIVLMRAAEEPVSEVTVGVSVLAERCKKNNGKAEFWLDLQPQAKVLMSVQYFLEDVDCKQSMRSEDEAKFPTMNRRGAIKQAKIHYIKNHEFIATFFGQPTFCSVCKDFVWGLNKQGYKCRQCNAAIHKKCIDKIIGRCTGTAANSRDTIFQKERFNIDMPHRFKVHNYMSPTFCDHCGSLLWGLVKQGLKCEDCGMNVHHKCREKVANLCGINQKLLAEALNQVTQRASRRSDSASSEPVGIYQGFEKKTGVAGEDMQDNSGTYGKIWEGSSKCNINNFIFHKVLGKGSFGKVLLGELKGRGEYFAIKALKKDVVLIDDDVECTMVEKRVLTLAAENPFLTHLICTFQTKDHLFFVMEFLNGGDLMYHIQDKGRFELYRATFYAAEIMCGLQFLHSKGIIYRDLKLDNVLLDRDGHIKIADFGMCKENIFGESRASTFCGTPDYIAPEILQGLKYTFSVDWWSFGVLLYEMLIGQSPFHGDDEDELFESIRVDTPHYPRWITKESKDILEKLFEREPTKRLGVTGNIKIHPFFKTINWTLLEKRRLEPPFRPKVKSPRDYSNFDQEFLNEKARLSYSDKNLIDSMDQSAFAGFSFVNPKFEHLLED
How it was run: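 Enzyme and compound pre-equilibrated 10 min at 30° C before adding ATP to 150 μM final. Buffer: HEPES pH 7.5 (100 mM), 10 mM MgCl2, 25 mM NaCl, 0.1 mM EDTA, 0.01% Brij.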

PKC alpha kinase = PKC alpha kinase (Homo sapiens, UniProt P17252); test: PKC alpha kinase inhibition, coupled-enzyme (NADH absorbance) assay, Ki; conditions: 130 μM ATP, 4.5 nM PKC alpha kinase, 30° C.
How it was run: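 Ki derived by non-linear regression of initial rates from a coupled assay tracking NADH absorbance at 340 nm over 15 min at 30 °C. ATP was 130 μM final after a 10 min compound–enzyme preincubation in HEPES pH 7.5 buffer with MgCl2, CaCl2, NaCl, EDTA and Brij.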

Chain of PKC theta kinase (Q04759 whole entry): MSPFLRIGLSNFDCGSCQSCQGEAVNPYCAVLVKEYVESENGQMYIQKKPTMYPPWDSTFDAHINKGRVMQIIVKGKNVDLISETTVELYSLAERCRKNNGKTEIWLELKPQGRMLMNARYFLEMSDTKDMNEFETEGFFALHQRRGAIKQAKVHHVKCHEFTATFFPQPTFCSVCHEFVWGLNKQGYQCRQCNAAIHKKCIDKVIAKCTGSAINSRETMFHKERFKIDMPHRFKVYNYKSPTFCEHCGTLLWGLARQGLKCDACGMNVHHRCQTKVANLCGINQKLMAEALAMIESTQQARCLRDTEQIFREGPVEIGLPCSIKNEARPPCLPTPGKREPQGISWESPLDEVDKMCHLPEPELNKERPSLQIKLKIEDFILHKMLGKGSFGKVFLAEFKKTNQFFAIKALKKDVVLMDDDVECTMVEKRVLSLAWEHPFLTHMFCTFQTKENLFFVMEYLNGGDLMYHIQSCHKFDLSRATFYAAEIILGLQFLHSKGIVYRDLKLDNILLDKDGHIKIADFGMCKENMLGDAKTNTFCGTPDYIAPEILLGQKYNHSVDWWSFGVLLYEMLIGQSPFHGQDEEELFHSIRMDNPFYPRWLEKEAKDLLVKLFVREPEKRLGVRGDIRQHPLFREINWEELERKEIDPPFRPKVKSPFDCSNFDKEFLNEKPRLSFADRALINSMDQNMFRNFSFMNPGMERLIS

SMILES	Ki (PKC theta kinase) [nM]	Ki (PKC delta kinase) [nM]	Ki (PKC alpha kinase) [nM]
CS(=O)(=O)NCC1CCCN(c2ccc(C(F)(F)F)c(-c3n[nH]c4ncccc34)n2)C1 (stereo not drawn) [Compound 372]	> 700	> 1250	> 1250
OC1CCN(c2cccc(-c3n[nH]c4ncccc34)n2)CC1 [Compound 22]	> 700	> 2000	> 1250
CCC(O)(CC)C1CN(c2cccc(-c3n[nH]c4ncccc34)n2)CCN1 (stereo not drawn) [Compound 154]	< 50	< 500	< 2800
CC(C)CC1(C#N)CN(c2ccc(F)c(-c3n[nH]c4ncccc34)n2)C1 [Compound 456]	> 700	> 1250	> 1250
CC(C)(C)[C@H]1CN(c2ccc(Cl)c(-c3n[nH]c4ncccc34)n2)CCN1 [Compound 78]	< 500	< 2800	> 1250
CC(C)(C)C(N)C1CCCN(c2ccc(F)c(-c3n[nH]c4ncccc34)n2)C1 (stereo not drawn) [Compound 331]	< 500	< 2800	> 1250
Cc1cc([C@@H]2CN(c3ccc(F)c(-c4n[nH]c5ncccc45)n3)CCN2)[nH]n1 [Compound 260]	< 500	> 1250	> 1250
Fc1ccc(N2CC3CCNCC3C2)nc1-c1n[nH]c2ncccc12 (stereo not drawn) [Compound 309]	< 2800	> 1250	> 1250
NC1(C2CCCN(c3ccc(F)c(-c4n[nH]c5ncccc45)n3)C2)CCCC1 (stereo not drawn) [Compound 344]	< 50	< 500	> 1250
FC(F)(F)c1ccc(C2CCNCC2)nc1-c1n[nH]c2ncccc12 [Compound 431]	> 700	> 1250	> 1250
CC(C)C[C@@]1(F)CN(c2ccc(C(F)(F)F)c(-c3n[nH]c4ncccc34)n2)CC[C@H]1O [Compound 198]	< 500	> 1250	> 1250
COC(C)(C)C1CN(c2ccc(F)c(-c3n[nH]c4ncccc34)n2)CCN1 (stereo not drawn) [Compound 190]	< 500	> 1250	> 1250
Fc1ccc(N2CCN[C@@H](CC3CC3)C2)nc1-c1n[nH]c2ncccc12 [Compound 163]	< 50	> 1250	> 1250
OCCC1CCCCN1c1ccc(C(F)(F)F)c(-c2n[nH]c3ncccc23)n1 (stereo not drawn) [Compound 257]	> 700	> 1250	> 1250
COC(C)C1CN(c2ccc(C(F)(F)F)c(-c3n[nH]c4ncccc34)n2)CCN1 (stereo not drawn) [Compound 221]	< 500	> 1250	> 1250
Fc1ccc(N2CCNC3(CCC3)C2)nc1-c1n[nH]c2ncccc12 [Compound 188]	< 50	< 500	< 2800
NCC1CCCN(c2ccc(C(F)(F)F)c(-c3n[nH]c4ncccc34)n2)C1 (stereo not drawn) [Compound 128]	> 700	> 1250	> 1250
CCC(C)(O)C1CN(c2ccc(F)c(-c3n[nH]c4ncccc34)n2)CCN1 (stereo not drawn) [Compound 242]	< 50	< 500	> 1250
CC(C)CC1(C(F)(F)F)CN(c2ccc(C(F)(F)F)c(-c3n[nH]c4ncccc34)n2)CCC1N (stereo not drawn) [Compound 405]	< 500	< 500	> 1250
C=Cc1ccc(N2CCNCC2)nc1-c1n[nH]c2ncccc12 [Compound 52]	< 500	< 2800	> 1250
CC(C)C[C@H]1CC(O)(c2cccc(-c3n[nH]c4ncccc34)n2)CCN1 (stereo partly drawn) [Compound 111]	> 700	> 1250	> 1250
CC(F)(F)C(C)(O)C1CN(c2ccc(F)c(-c3n[nH]c4ncccc34)n2)CCN1 (stereo not drawn) [Compound 286]	< 50	< 500	> 1250

SMILES	Ki (PKC theta kinase) [nM]	Ki (PKC delta kinase) [nM]	Ki (PKC alpha kinase) [nM]
CC(C)C[C@H]1CN(c2cccc(-c3n[nH]c4ncccc34)n2)C[C@@H](C)N1 [Compound 11]	< 50	< 50	< 2800
CC(F)(F)C(C)(O)C1CN(c2ccc(F)c(-c3n[nH]c4ncccc34)n2)CCN1 (stereo not drawn) [Compound 283]	< 1	< 50	< 2800
CC(C)CC1(C#N)CCN(c2ccc(C(F)(F)F)c(-c3n[nH]c4ncccc34)n2)CC1 [Compound 446]	> 700	> 1250	> 1250
FC(F)(F)c1ccc(N2CCNC(c3ccccc3)C2)nc1-c1n[nH]c2ncccc12 (stereo not drawn) [Compound 5]	< 50	> 2000	> 1250
Cc1ccc(C2CN(c3cccc(-c4n[nH]c5ncccc45)n3)CCN2)cc1 (stereo not drawn) [Compound 17]	< 500	> 2000	< 2800
CC(C)C(O)(CF)C1CN(c2ccc(F)c(-c3n[nH]c4ncccc34)n2)CCN1 (stereo not drawn) [Compound 264]	< 50	< 500	> 1250
CC(C)(C(N)C1CCCN(c2ccc(F)c(-c3n[nH]c4ncccc34)n2)C1)C(F)(F)F (stereo not drawn) [Compound 393]	< 1	< 50	< 2800
NC(=O)C1(N)CCN(c2ccc(F)c(-c3n[nH]c4ncccc34)n2)CC1 [Compound 399]	> 700	> 1250	> 1250
CC(C)C[C@H]1CN(c2ccc(C(F)(F)F)c(-c3n[nH]c4ncccc34)n2)CC[C@H]1O [Compound 91]	< 500	> 2000	> 1250
CCNC(=O)CC1CN(c2ccc(C(F)(F)F)c(-c3n[nH]c4ncccc34)n2)CCN1 (stereo not drawn) [Compound 212]	> 700	> 1250	> 1250
CS(=O)(=O)NCC1CCCN(c2ccc(F)c(-c3n[nH]c4ncccc34)n2)C1 (stereo not drawn) [Compound 371]	> 700	> 1250	> 1250
CC(C)C[C@@H]1CN(c2cccc(-c3n[nH]c4ncc(F)cc34)n2)CCN1 [Compound 46]	< 50	< 500	< 2800
CC(C)CC1CN(c2ccc(F)c(-c3n[nH]c4ncccc34)n2)CCC1C#N (stereo not drawn) [Compound 370]	< 50	< 2800	> 1250
CC1(C)CC1(O)C1CN(c2ccc(F)c(-c3n[nH]c4ncccc34)n2)CCN1 (stereo not drawn) [Compound 381]	< 1	< 500	< 500
NC1CCN(c2ccc(C(F)(F)F)c(-c3n[nH]c4ncccc34)n2)C1 (stereo not drawn) [Compound 125]	< 2800	> 1250	> 1250
NCC1CCCN(c2cccc(-c3n[nH]c4ncccc34)n2)C1 (stereo not drawn) [Compound 74]	< 500	< 500	< 2800
CC(C)C(C)(O)C1CN(c2nc(-c3n[nH]c4ncccc34)ccc2F)CCN1 (stereo not drawn) [Compound 329]	< 1	< 50	< 2800
NCC1CCN(c2ccc(C(F)(F)F)c(-c3n[nH]c4ncccc34)n2)CC1 [Compound 127]	> 700	> 1250	> 1250
NCC1CCCN(c2ccc(F)c(-c3n[nH]c4ncccc34)n2)C1 (stereo not drawn) [Compound 327]	< 500	> 1250	> 1250
N#CC1(c2cccc(-c3n[nH]c4ncccc34)n2)CCNCC1 [Compound 234]	< 50	< 500	< 500
c1cc(-c2n[nH]c3ncccc23)nc(N2CCNC(C3CC3)C2)c1 (stereo not drawn) [Compound 41]	< 50	< 500	> 1250
